Results from publication PMC7822874, “Chemoprotective antimalarials identified through quantitative high-throughput screening of Plasmodium blood and liver stage parasites” (Scientific Reports, 2021).
Like-named read-outs stand apart in the source and are kept apart here.

Tests used:
[1] = tested on: luciferase-expressing P. berghei liver stage parasites in HepG2 cells; assay: Inhibition of liver-stage development assay (ILSDA), Method 2 (WRAIR, 96-well); format: cell-based, Plasmodium berghei; settings: for Activity direction (Decrease / Inactive): P. berghei liver stage; for Max Resp (signal direction of the dose response): Decrease = decreasing P. berghei viability with dose, Increase = increasing signal, Inactive = no dose response
[2] = tested on: Plasmodium falciparum Dd2 asexual blood stage parasites; assay: microbe, parasite or virus in culture; set-up: species or system Plasmodium falciparum Dd2 in human erythrocytes; single determination (one 11-point concentration-response curve); settings: Plasmodium falciparum, DD2, Erythrocyte, 72 h; read-out: AC50
[3] = tested on: P. berghei-ANKA-GFP-LucCON liver stage parasites in HepG2-A16-CD81EGFP cells; assay: P. berghei liver stage Pb-Luc assay, Method 1 (UCSD, 1536-well); format: cell-based, Plasmodium berghei; settings: Method 1; for Max Resp (signal direction of the dose response): Decrease = decreasing P. berghei viability with dose, Increase = increasing signal, Inactive = no dose response
[4] = Plasmodium berghei, HepG2, P. berghei liver stage, Method 2, dose response, read-out: AC50
[5] = Plasmodium berghei, HepG2, P. berghei liver stage, Method 2, dose response, read-out: Log AC50 (converted)
[6] = Plasmodium berghei, HepG2, Method 2, Hill fit, 50% of maximum activity response, read-out: AC50
[7] = Plasmodium berghei, HepG2, Method 2, log10 of molar AC50 from Hill fit, read-out: Log AC50 (converted)
[8] = Plasmodium berghei, Hill fit, 50% of maximum activity response, read-out: AC50
[9] = Plasmodium berghei, log10 of molar AC50 from Hill fit, read-out: Log AC50 (converted)

For `CC(=O)N1CCN(C(=O)c2ccc3c(c2)NC(C)(COc2ccc4[nH]ccc4c2)CO3)CC1` (centres unmarked) [NCGC00416302], the “Activity direction (Decrease / Inactive)” value ([1]; Method 2, dose response) was “Inactive”.
With `CC(C)CC1=N[S+](=O)([O-])c2cc(NC(=O)C3CC3)ccc2N1c1ccccc1` [NCGC00475156-01] the “Activity direction (Decrease / Inactive)” value ([1]; Method 2, dose response) was “Decrease”, the AC50 [1, 4] was 3.16 µM and the AC50 [1, 5] was 3.16 µM.
In the case of `Cc1ccc(C)c(NC2=C(c3ccc(C(F)(F)F)cc3)C(=O)c3ccccc32)c1` [NCGC00107302], the “Max Resp (signal direction of the dose response)” value (shortened to “Max Resp”) ([1]; Method 2) was “Decrease”, the AC50 [1, 6] was 0.398 µM and the AC50 [1, 7] was 0.398 µM.
For `CCC(CC)c1cc([C@H]2CN3CC[C@H]2C[C@@H]3CNC(C)=O)nc(-c2ccncc2)n1` [NCGC00394634-01], the “Max Resp” value ([1]; Method 2) was “Decrease”, the AC50 [1, 6] was 0.355 µM and the AC50 [1, 7] was 0.355 µM. The AC50 [2] was 15.3 µM and the “Max Resp” value [3] was “Decrease”.
`Oc1ccccc1CN1CC(CNc2cccnc2)C2(C1)CN(c1ccccc1)C2` (centres unmarked) [NCGC00415924-01] was tested, and the “Activity direction (Decrease / Inactive)” value ([1]; Method 2, dose response) was “Inactive” and the AC50 [2] was 10.9 µM.
In the case of `O=C(NCC1CN(C(=O)Cc2cccc(OC(F)(F)F)c2)CC12CN(c1ccccc1)C2)c1ccccc1` (centres unmarked) [NCGC00415900-01], the “Activity direction (Decrease / Inactive)” value ([1]; Method 2, dose response) was “Inactive”.
For `CCOC(=O)c1[nH]c(C)c(CCC(=O)N2CCN(c3cccc(C)c3C)CC2)c1C` [NCGC00134568-01], the “Max Resp” value ([1]; Method 2) was “Decrease”, the AC50 [1, 6] was 0.562 µM and the AC50 [1, 7] was 0.562 µM. For the same compound, the AC50 [2] was 1.33 µM and the “Max Resp” value [3] was “Inactive”.
In the case of `Clc1cnccc1CN1CC(CNc2ccccc2)C2(C1)CN(c1ccccc1)C2` (centres unmarked) [NCGC00416018-01], the “Activity direction (Decrease / Inactive)” value ([1]; Method 2, dose response) was “Inactive” and the AC50 [2] was 13.7 µM.
`CCC1=N[S+](=O)([O-])c2cc(NC(=O)C3CC3)ccc2N1CC(C)C` [NCGC00475158-01] was tested, and the “Activity direction (Decrease / Inactive)” value ([1]; Method 2, dose response) was “Inactive”.
For `Cc1ccc2[nH]c(-c3ccccc3)cc(=O)c2c1` [MLS000112473-01], the “Max Resp” value ([1]; Method 2) was “Decrease”, the AC50 [1, 6] was 5.62 µM and the AC50 [1, 7] was 5.62 µM. For the same compound, the AC50 [2] was 4.73 µM.
With `COc1cccc(NC(=O)c2cccc3c(=O)c4c([nH]c23)CCCC4)c1` [NCGC00119838-01] the “Max Resp” value ([1]; Method 2) was “Increase”, the AC50 [2] was 2.99 µM and the “Max Resp” value [3] was “Inactive”.
In the case of `N#C/C(=C\c1ccc(Sc2ccc(Cl)cc2)o1)c1nc2ccccc2[nH]1` [MLS000579372-01], the “Max Resp” value ([1]; Method 2) was “Decrease”, the AC50 [1, 6] was 0.501 µM and the AC50 [1, 7] was 0.501 µM. The AC50 [2] was 2.99 µM.
With `CC(=O)Nc1ccc2c(c1)[S+](=O)([O-])N=C(CC(C)C)N2CC(C)C` [NCGC00473311-01] the “Activity direction (Decrease / Inactive)” value ([1]; Method 2, dose response) was “Inactive”.
`COc1ccc(-n2nc(C)c([C@@H]3C=C[C@@H](NCc4ccc(F)cc4)C3)c2C)cc1` [NCGC00421412-01] was tested, and the “Activity direction (Decrease / Inactive)” value ([1]; Method 2, dose response) was “Decrease”, the AC50 [1, 4] was 3.98 µM and the AC50 [1, 5] was 3.98 µM. The AC50 [2] was 1.37 µM, the “Max Resp” value [3] was “Decrease” and the AC50 ([3]; Hill fit, 50% of maximum activity response, read-out: AC50) was 1.78 µM. For the same compound, the “Log AC50 (M)” value ([3]; log10 of molar AC50 from Hill fit) was -5.750 M, the AC50 [3, 8] was 1.58 µM and the AC50 [3, 9] was 1.58 µM.
`CCCN1C(CC(C)C)=N[S+](=O)([O-])c2cc(NC(=O)C(C)C)ccc21` [NCGC00473220-01] was tested, and the “Activity direction (Decrease / Inactive)” value ([1]; Method 2, dose response) was “Decrease”, the AC50 [1, 4] was 1.12 µM and the AC50 [1, 5] was 1.12 µM.
In the case of `CCCCCCCc1c(C)[nH]c(N2CCOCC2)nc1=O` [MLS000531187-01], the “Max Resp” value ([1]; Method 2) was “Decrease”, the AC50 [1, 6] was 5.62 µM and the AC50 [1, 7] was 5.62 µM. It also gave an AC50 [2] of 5.31 µM.
With `CC(C)CCN1CC(CN[S+](=O)([O-])c2ccccc2)C2(C1)CN(c1ccccc1)C2` (centres unmarked) [NCGC00415920-01] the “Activity direction (Decrease / Inactive)” value ([1]; Method 2, dose response) was “Decrease”, the AC50 [1, 4] was 2.82 µM and the AC50 [1, 5] was 2.82 µM.
With `Cc1cccc(N2CCN(c3nc4ccccc4c4nnc(C)n34)CC2)c1C` [NCGC00107423] the “Max Resp” value ([1]; Method 2) was “Inactive”.
`Cc1cccc(N2CCN(c3nc4ccccc4c4nnc(C)n34)CC2)c1C` [NCGC00107423-01] was tested, and the “Max Resp” value ([1]; Method 2) was “Decrease”, the AC50 [1, 6] was 0.089 µM and the AC50 [1, 7] was 0.0891 µM. The AC50 [2] was 5.31 µM and the “Max Resp” value [3] was “Inactive”.
In the case of `CCC(C)C1=N[S+](=O)([O-])c2cc(NC(=O)c3ccco3)ccc2N1c1ccccc1` (centres unmarked) [NCGC00473608-01], the “Activity direction (Decrease / Inactive)” value ([1]; Method 2, dose response) was “Decrease”, the AC50 [1, 4] was 3.98 µM and the AC50 [1, 5] was 3.98 µM.
With `O=c1[nH]c(N2CCOCC2)nc2c1CCN(Cc1cc(Cl)ccc1F)CC2` [NCGC00440651] the “Activity direction (Decrease / Inactive)” value ([1]; Method 2, dose response) was “Decrease”, the AC50 [1, 4] was 0.2 µM and the AC50 [1, 5] was 0.2 µM.
For `CC1CCc2cc(F)ccc2N1C(=O)CSc1nnc2c(n1)[nH]c1ccccc12` (centres unmarked) [MLS000557140-01], the “Max Resp” value ([1]; Method 2) was “Decrease”, the AC50 [1, 6] was 5.62 µM and the AC50 [1, 7] was 5.62 µM. It also gave an AC50 [2] of 7.5 µM.
For `COc1ccc(NC2=C(c3ccc(C(F)(F)F)cc3)C(=O)c3ccccc32)cc1` [NCGC00107310], the “Max Resp” value ([1]; Method 2) was “Decrease”, the AC50 [1, 6] was 0.282 µM and the AC50 [1, 7] was 0.282 µM.
For `Cc1cccc(N(C)c2nc3ccccc3c3nnc(C)n23)c1` [NCGC00126108-01], the “Max Resp” value ([1]; Method 2) was “Decrease”, the AC50 ([1]; Method 2, Hill fit, 50% of maximum activity response, read-out: AC50) was 0.447 µM and the “Log AC50 (M)” value ([1]; Method 2, log10 of molar AC50 from Hill fit) was -6.350 M. The AC50 [2] was 1.06 µM, the “Max Resp” value [3] was “Decrease” and the AC50 [3, 8] was 0.316 µM. It also gave an AC50 [3, 9] of 0.316 µM.
